# Test: Lipoprotein cholesterophilicity: cholesterol partitioning between lipoproteins and 2-hydroxypropyl-cyclodextrin (CDX)
# Type: binding
# Conditions: isolated LDL and HDL enriched with POPC by DP
# Procedure: Control samples were prepared without detergent or POPC. The samples were dialyzed as described above. […] The samples were incubated for three hours and transferred to Microcon ultracentrifugal filters with an exclusion limit of 30 kDa and centrifuged for 10 min at 12,000 rpm in an Eppendorf microfuge. Aliquots of the retentate and filtrate were analyzed for cholesterol, protein, and phospholipid. The partition coefficient Kp for the distribution of cholesterol between TLP and CDX was calculated from Kp={FCBound×[[…]} Equation 1 where TLPPro is the initial TLP-protein concentration (mg/mL), […], and FCBound, respectively are the free cholesterol concentrations in the retentate, filtrate, and bound to TLP with FCBound calculated as […].
smiles,measurement,value
"CCCCCCCC/C=C\CCCCCCCC(=O)O[C@H](COC(=O)CCCCCCCCCCCCCCC)COP(=O)([O-])OCC[N+](C)(C)C [POPC, 1-palmitoyl-2-oleoyl (PO) PC]",effect of added POPC on the cholesterophilicities of LDL and HDL,dose-dependent increase
